Experimental data: patent US20090181910A1, “METHOD OF PREVENTION AND ALLEVIATION OF TOXICITY BY MODULATION OF IRF3” (priority 2006, published 2009)
“Also recorded” adds a separate entry of the source. Where a SMILES comes first, the peptide text is derived from it. The star is where a group is joined. Cbz = O=C(OCc1ccccc1)*

Experiments:
ABCA1 = assay: RAW 264.7 Q-PCR: ABCA1; type: cell-based, murine; conditions: overexpression of Hes1 in RAW 264.7 cells; FIG. 10b
CRBPII = assay: RAW 264.7 Q-PCR: CRBPII; type: cell-based, murine; conditions: overexpression of Hes1 in RAW 264.7 cells; FIG. 10b
Cyp1A2 = assay: Liver RNA Q-PCR, polyI:C/APAP-treated mice: Cyp1A2; conditions: APAP 350 mg/kg i.p., 6 h
[1] = in adults; cited from earlier work
Cyp3A11 [2] = assay: Liver RNA Q-PCR, polyI:C/APAP-treated mice: Cyp3A11; conditions: APAP 350 mg/kg i.p., 6 h
UGT1A6 [3] = type: cell-based, human; conditions: Huh7 cells with RXRα silenced by siRNA; ASA 20 μg/ml 24 hours
[4] = mouse, in vivo
RXRα [5] = tested on: RXRα; parameters: species or system mice; conditions: mouse, in vivo
[6] = mouse, in vivo; remark: listed apart in the source
UGT1A6 [7] = tested on: UGT1A6; parameters: species or system mice; conditions: mouse
Cyp3A11 [8] = conditions: mouse
Oatp2 = tested on: Oatp2; parameters: species or system mice; conditions: mouse
RXRα [9] = assay: BMM anti-RXRα Western blot; type: cell-based, Murine; conditions: for RXRα protein loss following polyI:C treatment: LG268 10 nM or GW3965 1 μM added to polyI:C 1 μg/ml, 24 hrs, FIG. 8d
[10] = mouse, in vivo; remark: listed apart in the source
[11] = H&E liver histology in APAP hepatotoxicity; conditions: pretreatment with PCN or ethanol, lower levels of APAP (175 mg/kg); FIG. 3B
[12] = addition of PCN
[13] = Serum ALT in APAP hepatotoxicity
[14] = Survival following APAP treatment; type: in vivo, mice; conditions: PCN 75 mg/kg i.p. 24 h before APAP 175 mg/kg; FIG. 4C
Method: FIG. 4: Percentage survival following APAP treatment with or without polyI:C. (A) Wildtype (n=8) fasted and were treated with 0.1% NaCl or polyI:C (100 μg) intravenous (i.v.) 24 hours prior to treatment with APAP (600 mg/kg) by intraperitoneal (i.p.) injection. (B) Wildtype and IRF3−/− (n=6-8) fasted and were treated with 0.1% NaCl or polyI:C (100 μg) intravenous (i.v.) 24 hours prior to treatment with APAP (600 mg/kg) by intraperitoneal (i.p.) injection. (C) Wildtype mice (n=6-8) fasted and were treated with 0.1% NaCl or polyI:C (100 μg) intravenous (i.v.) and PCN (75 mg/kg) intraperitoneal (i.p.) 24 hours prior to treatment with APAP (175 mg/kg) by intraperitoneal (i.p.) injection.
Age and sex matched 6-9 week old mice were used for all experiments. C57/B16 mice were obtained from Jackson Laboratory. IRF3^−/− mice were obtained from Dr. T. Taniguchi. For APAP hepatotoxicity analysis, mice fasted for […] and then administered Vehicle (0.1% NaCl) or APAP (175-600 mg/kg) by intraperitoneal injection (i.p.). For serum and histological studies, mice were sacrificed at 6-7 hours post injection and serum and liver samples were retrieved. For survival studies, mice were studied for up to 5 days. For polyI:C studies, mice were also treated with 0.1% NaCl or polyI:C (100 μg) intravenous (i.v.) 12-24 hours prior to APAP treatment. To study the effects of PCN on APAP treatment, mice were treated with PCN (75 mg/kg) or control (1% DMSO, corn oil) by intraperitoneal (i.p.) 12-24 hours prior to APAP treatment. To study the effects of ethanol (EtOH) on APAP treatment, mice were given 20% EtOH in water ad libidum for 5 days prior to APAP therapy. PolyI:C treatment for these experiments occurred at Day 3 and Day 5. Serum alanine aminotransferase (ALT) levels were determined using manufacturer's protocol (TECO Diagnostics). For H&E staining, liver samples were fixed in formalin for 48 hours. H&E stainings were done by UCLA Tissue Procurement Core Laboratory (TPCL).

RXRα [15] = type: cell-based, Murine

In the case of `CC1=C(/C=C/C(C)=C\C=C\C(C)=C\C(=O)O)C(C)(C)CCC1` [9cRA, 9-cis retinoic acid], the “induction of ABCA1 by 9cRA” value (ABCA1) was “prevents” and the “induction of CRBPII by 9cRA” value (CRBPII) was “prevents”.

For `CC(=O)Nc1ccc(O)cc1` [APAP, Acetaminophen], the “induction of Cyp1A2 by APAP” value (Cyp1A2) is listed as “does not”, the “single acute toxic ingestion” value [1] is listed as “approximately 7 g” and the “induction of Cyp3A11 by APAP” value (Cyp3A11 [2]) is listed as “does not”.

In the case of `CC(=O)Oc1ccccc1C(=O)O` [ASA, acetylsalicylic acid], the “UGT1A6 induction by ASA” value (UGT1A6 [3]) was “impaired”, the blood glucose levels [4] was “significantly decreased” and the “serum ALT” value [4] was “increased”. For the same molecule, the serum ammonia [4] was “increased”, the total bilirubin levels [4] was “increased” and the “RXRα protein in liver” value (RXRα [5]) was “significant loss of RXRα protein”. The “hepatotoxicity (liver necrosis or fatty degeneration)” value [6] was “caused severe hepatotoxicity as evidenced by liver necrosis or fatty degeneration”, the “hepatotoxicity from polyI:C plus ASA in knockout mice” value [6] was “did not occur in IRF3^−/− mice, but did occur in IFNAR^−/− mice” and the “hepatotoxicity, agent alone” value [6] was “did not cause significant hepatotoxicity”. The “UGT1A6 mRNA in vivo” value (UGT1A6 [7]) was “potently increased”, the “CYP3A11 mRNA in vivo” value (Cyp3A11 [8]) was “potently increased” and the “Oatp2 mRNA in vivo” value (Oatp2) was “not other PXR/RXR genes such as Oatp2”.

With `O=C(O)Cc1cccc(OCCCN(Cc2cccc(C(F)(F)F)c2Cl)CC(c2ccccc2)c2ccccc2)c1` [GW3965] the “RXRα protein loss following polyI:C treatment” value (RXRα [9]) was “more obvious”.

For `C[C@H](CCC(=O)O)[C@H]1CC[C@H]2[C@@H]3CC[C@@H]4C[C@H](O)CC[C@]4(C)[C@H]3CC[C@]12C` [LCA, Lithocholic acid], the “serum alanine aminotransferase (ALT) levels” value [10] was “significant elevation of serum alanine aminotransferase (ALT) levels”.

For `Cc1cc2c(cc1C1(c3ccc(C(=O)O)cn3)CC1)C(C)(C)CCC2(C)C` [LG268], the “RXRα protein loss following polyI:C treatment” value (RXRα [9]) was “more obvious”.

In the case of `CC(C)C[C@@H](C=O)NC(=O)[C@H](CC(C)C)NC(=O)[C@H](CC(C)C)NC(=O)OCc1ccccc1` [MG132] (Cbz-Leu-Leu-Leu-aldehyde), the “RXRα protein loss after 9cRA and polyI:C co-stimulation” value (RXRα [9]; MG132 10 μM, BMMs, FIG. 8f) was “prevented loss of RXRα protein”.

With `CC(=O)[C@H]1[C@H](C#N)C[C@H]2[C@@H]3CC=C4C[C@@H](O)CC[C@]4(C)[C@H]3CC[C@@]21C` [PCN, Pregnenolone 16alpha-carbonitrile] the “RXRα protein expression in liver” value (RXRα [5]) was “further loss of RXRα protein expression; also recorded: potent loss of RXRα protein”, the “LCA-induced serum ALT with PCN co-treatment” value [10] was “reduced” and the “UGT1A6 mRNA in vivo” value (UGT1A6 [7]) was “potently increased”. The “cell necrosis (H&E)” value [11] was “results in severe necrosis similar to higher doses of APAP”, the “protection from VSV plus LCA-induced hepatotoxicity” value [12] was “could not be blocked” and the “hepatotoxicity as measured by serum ALT” value ([13]; PCN 75 mg/kg i.p. 24 h before APAP 175 mg/kg, FIG. 2B) was “caused less toxic levels of APAP to result in severe hepatotoxicity”. For the same molecule, the “sensitivity to APAP (survival)” value [14] was “increases sensitivity to lower levels of APAP”, the “CYP3A11 mRNA in vivo” value (Cyp3A11 [8]) was “potently increased” and the “Oatp2 mRNA in vivo” value (Oatp2) was “not other PXR/RXR genes such as Oatp2”.

In the case of `CC(/C=C/C(=O)NO)=C\[C@@H](C)C(=O)c1ccc(N(C)C)cc1` [TSA, trichostatin A], the “effect on polyI:C repression of RXRα mRNA” value (RXRα [15]) was “prevented polyI:C repression of RXRα, and allowed polyI:C to induce RXRα”.

In the case of `CCO` [ethanol, Ethanol], the “cell necrosis (H&E)” value [11] was “results in severe necrosis similar to higher doses of APAP” and the “sensitivity to APAP (serum ALT)” value ([13]; 20% EtOH ad libidum 5 days, APAP 175 mg/kg, FIG. 2C) was “results in similar sensitivity to APAP as PCN treatment”.
